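Exposure lasted 48 hours, with cells grown in 96-well plates and compounds tested at five concentrations. Abbreviation: GI50, concentration required for 50% inhibition of growth. At the TGI there is no net growth.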
Legend:
Assay in all cases: inhibition of tumour cell growth, NCI panel, 48 h
786-0 renal = test system: 786-0 renal
A498 renal = test system: A498 renal
A549 NSCLC = test system: A549 NSCLC
ACHN renal = test system: ACHN renal
BT-549 breast = test system: BT-549 breast
CAKI-1 renal = test system: CAKI-1 renal
CCRF-CEM leukemia = test system: CCRF-CEM leukemia
COLO 205 colon = test system: COLO 205 colon
DU-145 prostate = test system: DU-145 prostate
EKVX NSCLC = test system: EKVX NSCLC
HCC-2998 colon = test system: HCC-2998 colon
HCT-15 colon = test system: HCT-15 colon
HL-60(TB) leukemia = test system: HL-60(TB) leukemia
HOP-62 NSCLC = test system: HOP-62 NSCLC
HOP-92 NSCLC = test system: HOP-92 NSCLC
HS 578T breast = test system: HS 578T breast
HT29 colon = test system: HT29 colon
IGROV1 ovarian = test system: IGROV1 ovarian
K-562 leukemia = test system: K-562 leukemia
KM12 colon = test system: KM12 colon
LOX IMVI melanoma = test system: LOX IMVI melanoma
M14 melanoma = test system: M14 melanoma
MALME-3M melanoma = test system: MALME-3M melanoma
MCF7 breast = test system: MCF7 breast
MDA-MB-231 breast = test system: MDA-MB-231 breast
MDA-MB-435 = test system: MDA-MB-435
MOLT-4 leukemia = test system: MOLT-4 leukemia
NCI-H226 lung = test system: NCI-H226 lung
NCI-H23 lung = test system: NCI-H23 lung
NCI-H460 lung = test system: NCI-H460 lung
NCI-H522 lung = test system: NCI-H522 lung
NCI/ADR-RES ovarian = test system: NCI/ADR-RES ovarian
OVCAR-3 ovarian = test system: OVCAR-3 ovarian
OVCAR-4 ovarian = test system: OVCAR-4 ovarian
OVCAR-5 ovarian = test system: OVCAR-5 ovarian
OVCAR-8 ovarian = test system: OVCAR-8 ovarian
PC-3 prostate = test system: PC-3 prostate
RPMI-8226 leukemia = test system: RPMI-8226 leukemia
RXF 393 renal = test system: RXF 393 renal
SF-268 CNS = test system: SF-268 CNS
SF-295 CNS = test system: SF-295 CNS
SF-539 CNS = test system: SF-539 CNS
SK-MEL-2 melanoma = test system: SK-MEL-2 melanoma
SK-MEL-28 melanoma = test system: SK-MEL-28 melanoma
SK-MEL-5 melanoma = test system: SK-MEL-5 melanoma
SK-OV-3 ovarian = test system: SK-OV-3 ovarian
SN12C renal = test system: SN12C renal
SNB-19 CNS = test system: SNB-19 CNS
SNB-75 CNS = test system: SNB-75 CNS
SR leukemia = test system: SR leukemia
SW-620 colon = test system: SW-620 colon
T-47D breast = test system: T-47D breast
TK-10 renal = test system: TK-10 renal
U251 CNS = test system: U251 CNS
UACC-257 melanoma = test system: UACC-257 melanoma
UACC-62 melanoma = test system: UACC-62 melanoma
UO-31 renal = test system: UO-31 renal

Cc1[nH]nc2ncc(C#Cc3cncc(C(=O)Nc4ccc(CN5CCN(C)CC5)c(C(F)(F)F)c4)c3)cc12
GI50 (786-0 renal): 173 nM | TGI (786-0 renal): 1790 nM | GI50 (A498 renal): 218 nM | TGI (A498 renal): 1240 nM | GI50 (A549 NSCLC): 453 nM | TGI (A549 NSCLC): > 100000 nM | GI50 (ACHN renal): 126 nM | GI50 (BT-549 breast): 301 nM | TGI (BT-549 breast): 7250 nM | GI50 (CAKI-1 renal): 64.7 nM | TGI (CAKI-1 renal): 994 nM | GI50 (CCRF-CEM leukemia): 293 nM | TGI (CCRF-CEM leukemia): > 27500 nM | GI50 (COLO 205 colon): 287 nM | TGI (COLO 205 colon): 1910 nM | GI50 (DU-145 prostate): 152 nM | GI50 (EKVX NSCLC): 294 nM | GI50 (HCC-2998 colon): 488 nM | GI50 (HCT-15 colon): 288 nM | TGI (HCT-15 colon): 4040 nM | GI50 (HL-60(TB) leukemia): 280 nM | TGI (HL-60(TB) leukemia): 16900 nM | GI50 (HOP-62 NSCLC): 366 nM | TGI (HOP-62 NSCLC): 8820 nM | GI50 (HOP-92 NSCLC): 123 nM | TGI (HOP-92 NSCLC): 808 nM | GI50 (HS 578T breast): 87.2 nM | TGI (HS 578T breast): 929 nM | GI50 (HT29 colon): 174 nM | TGI (HT29 colon): 8570 nM | GI50 (IGROV1 ovarian): 58.2 nM | TGI (IGROV1 ovarian): 1730 nM | TGI (K-562 leukemia): 2030 nM | GI50 (KM12 colon): < 11.6 nM | GI50 (LOX IMVI melanoma): 155 nM | TGI (LOX IMVI melanoma): 993 nM | GI50 (M14 melanoma): 44.4 nM | TGI (M14 melanoma): 2070 nM | GI50 (MALME-3M melanoma): 65.4 nM | TGI (MALME-3M melanoma): 304 nM | GI50 (MCF7 breast): 772 nM | TGI (MCF7 breast): > 100000 nM | GI50 (MDA-MB-231 breast): 78.9 nM | TGI (MDA-MB-231 breast): 737 nM | GI50 (MDA-MB-435): 242 nM | TGI (MDA-MB-435): 21100 nM | GI50 (MOLT-4 leukemia): 155 nM | GI50 (NCI-H226 lung): 124 nM | TGI (NCI-H226 lung): 953 nM | GI50 (NCI-H23 lung): 439 nM | TGI (NCI-H23 lung): > 100000 nM | GI50 (NCI-H460 lung): 147 nM | TGI (NCI-H460 lung): 4640 nM | GI50 (NCI-H522 lung): 124 nM | TGI (NCI-H522 lung): 4730 nM | GI50 (NCI/ADR-RES ovarian): 5770 nM | TGI (NCI/ADR-RES ovarian): > 25300 nM | GI50 (OVCAR-3 ovarian): 401 nM | GI50 (OVCAR-4 ovarian): 582 nM | GI50 (OVCAR-5 ovarian): 418 nM | GI50 (OVCAR-8 ovarian): 413 nM | GI50 (PC-3 prostate): 330 nM | TGI (PC-3 prostate): > 21800 nM | GI50 (RPMI-8226 leukemia): 426 nM | GI50 (RXF 393 renal): 75.2 nM | TGI (RXF 393 renal): 600 nM | GI50 (SF-268 CNS): 289 nM | GI50 (SF-295 CNS): 286 nM | GI50 (SF-539 CNS): 158 nM | TGI (SF-539 CNS): 1080 nM | GI50 (SK-MEL-2 melanoma): 85.2 nM | TGI (SK-MEL-2 melanoma): 352 nM | GI50 (SK-MEL-28 melanoma): 212 nM | TGI (SK-MEL-28 melanoma): 3740 nM | GI50 (SK-MEL-5 melanoma): 308 nM | TGI (SK-MEL-5 melanoma): 12500 nM | GI50 (SK-OV-3 ovarian): 174 nM | TGI (SK-OV-3 ovarian): > 51800 nM | GI50 (SN12C renal): 299 nM | TGI (SN12C renal): 11200 nM | GI50 (SNB-19 CNS): 1030 nM | TGI (SNB-19 CNS): 13200 nM | GI50 (SNB-75 CNS): 491 nM | TGI (SNB-75 CNS): 13600 nM | GI50 (SR leukemia): 140 nM | GI50 (SW-620 colon): 183 nM | TGI (SW-620 colon): 4380 nM | GI50 (T-47D breast): 508 nM | TGI (T-47D breast): > 61900 nM | GI50 (TK-10 renal): 441 nM | GI50 (U251 CNS): 460 nM | TGI (U251 CNS): 28100 nM | GI50 (UACC-257 melanoma): 317 nM | GI50 (UACC-62 melanoma): 95.9 nM | TGI (UACC-62 melanoma): 704 nM | GI50 (UO-31 renal): 326 nM | TGI (UO-31 renal): 1980 nM
